What follows are compounds tested on T47D (assay: Inhibition of breast cancer cell line T47D proliferation).
Type: functional, Homo sapiens
Set-up: concentration or dose not given beside the values

| Structure (SMILES) | Inhibition [%] |
| --- | --- |
| CC(=O)C1CCC2/C(=C/C=C3CCC(=O)CC3)CCC[C@]12C (stereo partly drawn) | 58 |
| C=C1CC[C@H](O)C/C1=C/C=C1\CCC[C@]2(C)C(C(C)=O)CCC12 (stereo partly drawn) | 59 |
| CC(=O)C1CCC2/C(=C/C=C3CCC4(CC3)OCCO4)CCC[C@]12C (stereo partly drawn) | 47 |
| CC(=O)C1CCC2/C(=C/C=C3CCCCC3)CCC[C@]12C (stereo partly drawn) | 24 |
| C[C@H](CO)C1CCC2/C(=C/C=C3CCC4(CC3)OCCO4)CCC[C@@]21C (stereo partly drawn) | 40 |
| C[C@H](C=O)C1CCC2/C(=C/C=C3CCCCC3)CCC[C@@]21C (stereo partly drawn) | 36 |
| C[C@H](C=O)C1CCC2/C(=C/C=C3CCC4(CC3)OCCO4)CCC[C@@]21C (stereo partly drawn) | 47 |
| C[C@H](CO)C1CCC2/C(=C/C=C3CCCCC3)CCC[C@@]21C (stereo partly drawn) | 13 |

— ChEMBL document CHEMBL1128076, “Synthesis of novel 20-oxo-pregnacalciferol analogs with binding affinity to the progesterone receptor” (1995)
